Reference: publication PMC12332667, “Role of Structural Modifications in Peptidomimetic Compounds as Potential Antimicrobial Agents against Staphylococcus aureus and Streptococcus pyogenes: Balancing Bioavailability, Safety, and Antimicrobial Activity” (ACS Omega, 2025)
In brackets after ≈: the same amount, converted by molar mass.

How the values were obtained:
[1] = system: S. pyogenes ATCC 19615; test: MIC/MBC broth microdilution, S. pyogenes; assay type: cell-based, Streptococcus pyogenes; settings: S. pyogenes
Description: (§1) S. aureus (ATCC 29213),S. pyogenes (ATCC 19615),Streptococcus agalactiae (ATCC 27956),Escherichia coli (ATCC 25922),Proteus vulgaris (ATCC 6896),K. pneumoniae (ATCC 700603) andP. aeruginosa (ATCC 10145) reference strains, as well asStaphylococcus cohnii, Enterococcus faecalis, Staphylococcus schleiferi, Staphylococcus intermedius and Streptococcus mutans clinical isolates, were used to test the antibacterial activity of the peptidomimetics. Bacteria were aerobically cultured for 18 h at 37 °C in plates with sterilized brain heart infusion (BHI) broth (Sigma-Aldrich, USA) media mixed with bacteriological agar (Sigma-Aldrich, USA) using the streak plate method. After 18 h, BHI broth was inoculated to 0.5 on the McFarland scale and diluted to approximately 10^5 CFU/mL. To achieve a final stock concentration of 1024 μg/mL, the peptidomimetics were dissolved in sterile water, and 5–10% of absolute ethanol or dimethyl sulfoxide (DMSO) was added. The antibacterial activities were determined by using the standard broth microdilution method of the National Committee for Clinical Laboratory Standards. The process involved adding serially diluted peptidomimetics to consecutive wells of a 96-well microtiter plate (Brand, Germany) holding media with microorganisms. The inoculated plates treated with peptides were then placed in an incubator at 37 °C for 18 h. The MIC value was determined as the lowest concentration of peptidomimetic at which there was no obvious growth (equal or more than 90% of the untreated sample). […] The lowest concentration yielding growth in no more than 3 colonies, corresponding to at least a 99.9% kill rate, was taken as MBC. Each biological replicate included control wells with the addition of water, DMSO, and ethanol as respective solvent controls. All experiments were conducted with consistent adherence to growth and sterility controls and were performed at least in technical triplicate with three biological repeats.

[2] = system: S. cohnii c.i.; test: MIC/MBC broth microdilution, S. cohnii; assay type: cell-based, Staphylococcus cohnii
Description: as §1

[3] = system: S. schleiferi c.i.; test: MIC/MBC broth microdilution, S. schleiferi; assay type: cell-based, Staphylococcus schleiferi
Description: as §1

[4] = system: E. coli ATCC 25922; test: MIC/MBC broth microdilution, E. coli; assay type: cell-based, Escherichia coli
Description: as §1

[5] = system: K. pneumoniae ATCC 700603; test: MIC/MBC broth microdilution, K. pneumoniae; assay type: cell-based
Description: as §1

[6] = system: fibroblasts (46BR.1N); test: LDH cytotoxicity test, fibroblasts; assay type: cell-based; settings: 48 h, 50, 100 and 150 μg/mL, vs 1% Triton X-100
Description: (§2) In our study, we used two distinct cell types: immortalized human HaCaT keratinocytes (DKFZ, Heidelberg, Germany) and a human dermal fibroblast cell line (46BR.1N). […] Cultures were maintained in a humidified atmosphere with 5% CO2 at 37 °C in 25 cm^2 culture flasks with the medium replenished every 2 days. The condition of the cells was monitored using optical microscopy.
(§3) Cell death in immortalized human keratinocytes (HaCaT) and fibroblasts (46BR.1N) was measured by quantifying the lactate dehydrogenase (LDH) activity using a commercial kit (Roche, Switzerland). Cells were seeded in 96-well plates at a density of 5000 cells per well in DMEM high glucose medium supplemented with 10% FBS. After 24 h of incubation, the medium was replaced with serum-free medium containing various concentrations of peptidomimetics (50, 100, and 150 μg/mL). After 48 h, supernatants were collected for LDH analysis. Plate readings were taken spectrophotometrically using a 450 nm wavelength. Cell death measurements were normalized to an untreated control (0%), with 1% Triton X-100 detergent used as a positive control to induce maximum LDH release, indicating maximal cytotoxicity. Statistical significance was determined with a Mann–Whitney U test with a statistical significance p ≤ 0.05. Analysis was performed with Statistica software (Krakow, Poland) and graphs were prepared in GraphPad Prism (Boston, USA).

[7] = system: E. faecalis c.i.; test: MIC/MBC broth microdilution, E. faecalis; assay type: cell-based, Enterococcus faecalis
Description: as §1

[8] = system: S. intemrdius c.i.; test: MIC/MBC broth microdilution, S. intermedius; assay type: cell-based, Staphylococcus intermedius
Description: as §1

[9] = system: S. aureus ATCC 43300; test: MIC/MBC broth microdilution, S. aureus; assay type: cell-based, Staphylococcus aureus; settings: S. aureus
[10] = system: human dermal fibroblast cell line (46BR.1N); test: XTT cell proliferation assay, fibroblasts; assay type: cell-based; settings: XTT
Description: (§4) In our study, we used two distinct cell types: immortalized human HaCaT keratinocytes (DKFZ, Heidelberg, Germany) and a human dermal fibroblast cell line (46BR.1N). […] Cultures were maintained in a humidified atmosphere with 5% CO2 at 37 °C in 25 cm^2 culture flasks with the medium replenished every 2 days. The condition of the cells was monitored using optical microscopy. […] After 24 h of incubation, the medium was replaced with serum-free HG-DMEM containing appropriate concentrations of peptidomimetics. All solutions used in the experiments were prepared with double-distilled water or with the addition of ethanol under sterile conditions to ensure compatibility with the conditions of the bacteriological assay. For 72 h of incubation, half of the medium was replaced with fresh medium after 48 h, and cells were stimulated with peptides for a second time. The XTT cell proliferation assay was then performed according to the manufacturer’s instructions (Roche, Switzerland). Cells were treated with the peptides for either 48 or 72 h, followed by the addition of XTT reagent, and the plates were then incubated at 37 °C in a 5% CO2 environment for 4 h. Plate readings were taken using a standard plate reader at a wavelength of 490 nm (OD = 490 nm). […] Statistical significance was determined with a Mann–Whitney U test with statistical significance p ≤ 0.05. Analysis was performed with Statistica software, and graphs were prepared in GraphPad Prism.

[11] = system: S. agalactiae ATCC 27956; test: MIC/MBC broth microdilution, S. agalactiae; assay type: cell-based, Streptococcus agalactiae; settings: S. agalactiae
Description: as §1

[12] = system: S. mutans c.i.; test: MIC/MBC broth microdilution, S. mutans; assay type: cell-based, Streptococcus mutans
Description: as §1

[13] = system: immortalized human HaCaT keratinocytes; test: XTT cell proliferation assay, keratinocytes; assay type: cell-based; settings: XTT
Description: as §4

[14] = system: P. aeruginosa ATCC 10145; test: MIC/MBC broth microdilution, P. aeruginosa; assay type: cell-based
Description: as §1

[15] = system: immortalized human keratinocytes (HaCaT); test: LDH cytotoxicity test, keratinocytes; assay type: cell-based; settings: 48 h, 50, 100 and 150 μg/mL, vs 1% Triton X-100
Description: as §2, §3

[16] = system: P. vulgaris ATCC 6896; test: MIC/MBC broth microdilution, P. vulgaris; assay type: cell-based, Proteus vulgaris
Description: as §1

CC(C)C[C@H](NC(=O)[C@H](CCCCNC(=N)N)NC(=O)OCc1ccccc1)C(=O)N[C@H](CNC(=O)/C=C/c1ccccc1)C(C)C [Compound A-134] was tested, and the MIC ([1]; H2O) was 32 µg/mL (≈ 49.2 µM), the MBC ([1]; water additive DMSO) was 16 µg/mL (≈ 24.6 µM) and the MIC ([1]; water additive DMSO) was 32 µg/mL (≈ 49.2 µM). The MBC ([1]; water additive EtOH) was 32 µg/mL (≈ 49.2 µM), the MIC ([1]; water additive EtOH) was 16 µg/mL (≈ 24.6 µM) and the MBC ([2]; water additive DMSO) was 32 µg/mL (≈ 49.2 µM). The MIC ([2]; water additive DMSO) was 32 µg/mL (≈ 49.2 µM), the MBC ([2]; water additive EtOH) was 32 µg/mL (≈ 49.2 µM) and the MIC ([2]; water additive EtOH) was 32 µg/mL (≈ 49.2 µM). For the same compound, the MIC ([3]; water additive DMSO) was > 512 µg/mL, the MIC ([3]; water additive EtOH) was > 512 µg/mL and the MIC ([4]; water additive DMSO) was > 512 µg/mL. The MIC ([4]; water additive EtOH) was > 512 µg/mL, the MIC ([5]; water additive DMSO) was > 512 µg/mL and the MIC ([5]; water additive EtOH) was > 512 µg/mL. For the same compound, the “cytotoxicity (LDH)” value [6] was ≤ 50%, the MBC ([7]; water additive DMSO) was 512 µg/mL (≈ 788 µM) and the MIC ([7]; water additive DMSO) was 256 µg/mL (≈ 394 µM). It also gave an MBC ([7]; water additive EtOH) of 512 µg/mL (≈ 788 µM), an MIC ([7]; water additive EtOH) of 512 µg/mL (≈ 788 µM) and an MBC ([8]; water additive DMSO) of 32 µg/mL (≈ 49.2 µM). For the same compound, the MIC ([8]; water additive DMSO) was 32 µg/mL (≈ 49.2 µM), the MBC ([8]; water additive EtOH) was 16 µg/mL (≈ 24.6 µM) and the MIC ([8]; water additive EtOH) was 16 µg/mL (≈ 24.6 µM). The MIC ([9]; H2O) was 32 µg/mL (≈ 49.2 µM), the MIC ([9]; water additive EtOH) was 32 µg/mL (≈ 49.2 µM) and the “proliferation relative to control at 50 μg/mL” value ([10]; 50 μg/mL) was “approximately 75%”. The “effect on proliferation, in words” value ([10]; 48 and 72 h, 0.01–150 μg/mL) was “pro-proliferating effect at lower concentrations followed by an antiproliferative effect at higher concentrations”, the MIC ([11]; water additive DMSO) was 32 µg/mL (≈ 49.2 µM) and the MIC ([11]; water additive EtOH) was 32 µg/mL (≈ 49.2 µM). For the same compound, the MBC ([12]; water additive DMSO) was > 512 µg/mL, the MIC ([12]; water additive DMSO) was 512 µg/mL (≈ 788 µM) and the MIC ([12]; water additive EtOH) was > 512 µg/mL. For the same compound, the “proliferation relative to control at 50 μg/mL” value ([13]; 50 μg/mL) was “approximately 75%”, the “effect on proliferation, in words” value ([13]; 48 and 72 h, 0.01–150 μg/mL) was “pro-proliferating effect at lower concentrations followed by an antiproliferative effect at higher concentrations” and the MIC ([14]; water additive DMSO) was > 512 µg/mL. For the same compound, the MIC ([14]; water additive EtOH) was > 512 µg/mL, the “cytotoxicity (LDH)” value [15] was ≤ 50% and the MIC ([16]; water additive DMSO) was > 512 µg/mL. For the same compound, the MIC ([16]; water additive EtOH) was > 512 µg/mL.
